Test results taken from US20170327598A1, “SINGLE DOMAIN ANTIBODIES DIRECTED AGAINST INTRACELLULAR ANTIGENS” (SINGH MOLECULAR MEDICINE, LLC, priority 2014, published 2017).
Several values for one entry are separate records, joined by “and”; a condition that tells them apart may be missing. Identical values can stand only once. Like-named read-outs stand apart in the source and are kept apart here.

Legend:
[1] = tested on: PANC-1 human pancreatic cancer xenograft
[2] = tested on: MDA-MB-231 human breast cancer xenograft; conditions: for Individual Tumor Measurements: listed as anti-STAT3 bacterial VHH13
ARPE-19 cells = experiment: BCA protein content of ARPE-19 cell lysate, Experiment 1; type: cell-based; conditions: 24 Hr; for Protein Conc.: cell lysate
Protocol: For Experiment 1, the retinal cell line ARPE-19 (ATCC, Manassas, Va.) were plated at 5×10^4 cells/well into a 24-well plate and grown to confluence. All incubations with cells were performed in a 37° C., 5% CO2 humidified incubator. The media was replaced with growth media (DMEM:HAM12) containing 1% FBS and incubated overnight. […] At that time, the supernatant was removed and stored at <−65° C. for ELISA analysis. Cells were lysed using RIPA lysis buffer (ThermoFisher Scientific, Rockford, Ill.) and the protein content of the cell lysate was measured in the BCA assay (ThermoFisher Scientific) according to the kit instructions. VEGF-A was measured utilizing the Human VEGF-A ELISA Kit (ThermoFisher Scientific) in accordance with the kit instructions.
ELISA results were reported as pictograms (pg) VEGF-A/mL and then adjusted for the dilution of samples in the ELISA (1:2 for Experiment 1 and 1:5 for Experiment 2). The ELISA results were then normalized for protein content. […] The positive control (PC) (anti-STAT3 monoclonal antibody) ranged from 48.8 to 66.4 pg VEFG/[…] slightly lower but overlapping the range seen with the negative control. Statistical analysis confirmed that the variation seen was not statistically significant (P value >0.05). The samples collected at 72 hours were higher than the top standard curve.

PANC-1 cells = experiment: MTT proliferation assay, PANC-1; type: cell-based, human; conditions: for Mean Absorbance (570 nM) ± S.E.: single experiments 1-3, listed as B.VHH13
[3] = tested on: STAT3 reporter, induction by interleukin-6; experiment: STAT3 reporter GloResponse SIE-luc2P/HEK293 cell assay, IL-6 induction; type: cell-based; conditions: for decrease in RLU: highest concentration;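 on all read-outs here: IL-6 added at 40 ng/mL (EC80) for roughly one day after pretreatment, luciferase luminescence read with Bio-Glo reagent, untreated +IL6 wells serve as control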
[4] = tested on: MCF-7 human breast tumor xenograft; conditions: for Tumor Volume TV (mm^3), individual animal / Tumor caliper measurement L (mm), individual animal: 1 mg/kg
[5] = 24 Hour Treatment Prior to IL6 Induction, high conc.: VHH13 55.8 μg/mL, VHH14 84.3 μg/mL, BB1608 4.16 μM, VHH69 50.5 μg/mL
[6] = 24 Hour Treatment Prior to IL6 Induction, low conc.: VHH13, VHH14, VHH69 10 μg/mL, BB1608 2 μM
[7] = 48 Hour Treatment Prior to IL6 Induction, high conc.: VHH13 55.8 μg/mL, VHH14 84.3 μg/mL, BB1608 4.16 μM, VHH69 50.5 μg/mL
[8] = 48 Hour Treatment Prior to IL6 Induction, low conc.: VHH13, VHH14, VHH69 10 μg/mL, BB1608 2 μM
[9] = 1 mg/kg ip tid × 14 first Day 2 doses

Anti-STAT3 VHH13: anti-STAT3 single domain antibody, SEQ ID NO:3; bacterially produced form referred to as SBT-100
growth inhibition ([1]; 500 μg/kg bw IP QDx14): no significant growth inhibition | tumor doubling time ([1]; 500 μg/kg bw IP QDx14): 23.02 days | mean tumor size (±SE) ([1]; treatment group, day 14 of dosing): 318.74 ± 29.76 | % mean tumor growth inhibition ([2]; 500 μg/kg bw IP QDx14): 33.64% | tumor doubling time ([2]; 500 μg/kg bw IP QDx14): 61.06 days | mean tumor size (±SE) ([2]; 500 μg/kg bw IP QDx14, day 14 of dosing): 118.86±15.94 | Individual Tumor Measurements ([2]; Group 2, 500 μg/kg bw IP QDx14, single animals, Day 1): 123.94 mm^3 and 85.93 mm^3 and 147.34 mm^3 and 115.91 mm^3 and 73.23 mm^3 | Tumor Measurements, group Mean ([2]; Group 2, Day 1): 102.61 mm^3 | Tumor Measurements, group Mean ([2]; Group 2, Day 6): 101.16 mm^3 | Tumor Measurements, group Mean ([2]; Group 2, Day 9): 112.44 mm^3 | Tumor Measurements, group Mean ([2]; Group 2, Day 12): 112.92 mm^3 | Tumor Measurements, group Mean ([2]; Group 2, Day 16): 118.86 mm^3 | Tumor Measurements, group Mean ([2]; Group 2, Day 20): 128.49 mm^3 | Individual Tumor Measurements ([2]; Group 2, single animals, Day 6): 114.91 mm^3 and 101.06 mm^3 and 148.72 mm^3 and 103.64 mm^3 and 82.59 mm^3 | Individual Tumor Measurements ([2]; Group 2, single animals, Day 9): 129.22 mm^3 and 112.60 mm^3 and 169.69 mm^3 and 108.37 mm^3 and 110.13 mm^3 | Individual Tumor Measurements ([2]; Group 2, single animals, Day 12): 176.04 mm^3 and 112.24 mm^3 and 185.08 mm^3 and 141.21 mm^3 and 91.22 mm^3 | Individual Tumor Measurements ([2]; Group 2, single animals, Day 16): 170.09 mm^3 and 139.56 mm^3 and 170.07 mm^3 and 144.51 mm^3 | Individual Tumor Measurements ([2]; Group 2, single animals, Day 20): 162.98 mm^3 and 96.43 mm^3 and 256.71 mm^3 and 119.42 mm^3 | Total protein per well (ARPE-19 cells; 0.1 μg/well): 12 and 16 and 18 | Protein Conc. (ARPE-19 cells; 0.1 μg/well): 245 µg/mL and 323 µg/mL and 357 µg/mL | Total protein per well (ARPE-19 cells; 0.5 μg/well): 16 and 13 | Protein Conc. (ARPE-19 cells; 0.5 μg/well): 315 µg/mL and 268 µg/mL and 206 µg/mL | Mean Absorbance (570 nM) ± S.E., Overall Mean (PANC-1 cells; PANC-1, Day 3, 10.0 μg/ml): 0.472 ± 0.020 | Mean Absorbance (570 nM) ± S.E. (PANC-1 cells; PANC-1, Day 3, 10.0 μg/ml): 0.432 ± 0.015 and 0.491 ± 0.087 and 0.493 ± 0.029 | Mean Absorbance (570 nM) ± S.E., Overall Mean (PANC-1 cells; PANC-1, Day 3, 100 μg/ml): 0.214 ± 0.047 | Mean Absorbance (570 nM) ± S.E. (PANC-1 cells; PANC-1, Day 3, 100 μg/ml): 0.307 ± 0.012 and 0.169 ± 0.094 and 0.166 ± 0.028 | Mean Absorbance (570 nM) ± S.E., Overall Mean (PANC-1 cells; PANC-1, Day 5, 10.0 μg/ml): 0.643 ± 0.126 | Mean Absorbance (570 nM) ± S.E., Overall Mean (PANC-1 cells; PANC-1, Day 5, 100 μg/ml): 0.219 ± 0.012 | Mean Absorbance (570 nM) ± S.E. (PANC-1 cells; PANC-1, Day 5, 100 μg/ml): 0.243 ± 0.024 and 0.211 ± 0.006 and 0.203 ± 0.013 | Average RLU [3, 5]: 11498 RLU | Average RLU with Media Blank [3, 5]: 11473 RLU | Luminescence (RLU), single wells [3, 5]: 10992 RLU and 11445 RLU and 12058 RLU | Average RLU [3, 6]: 175275 RLU | Average RLU with Media Blank [3, 6]: 175249 RLU | Luminescence (RLU), single wells [3, 6]: 164397 RLU and 169890 RLU and 191537 RLU | Average RLU [3, 7]: 89 RLU | Average RLU with Media Blank [3, 7]: 57 RLU | Luminescence (RLU), single wells [3, 7]: 104 RLU and 96 RLU | Average RLU [3, 8]: 182218 RLU | Average RLU with Media Blank [3, 8]: 182185 RLU | Luminescence (RLU), single wells [3, 8]: 168740 RLU and 188307 RLU and 189606 RLU | effect on IL-6 induction of STAT3 reporter ([3]; 24 hours and 48 hours treatment prior to IL-6): Inhibition of IL-6 | decrease in RLU ([3]; 24 hours): greater than 10 fold | decrease in RLU ([3]; 48 hours): greater than 1,000 fold | % TGD [4, 9]: 42% | Median TTE [4, 9]: 32.9 | T-C [4, 9]: 9.7 | Tumor Volume TV (mm^3), group Mean ([4]; Day 1, 1 mg/kg ip tid × 14): 117 mm^3 | Tumor caliper measurement W (mm), individual animal ([4]; Day 1, 1 mg/kg ip tid × 14): 6 mm | Tumor Volume TV (mm^3), individual animal ([4]; Day 1, 1 mg/kg ip tid × 14): 108 mm^3 (2×) and 126 mm^3 (2×) | Tumor caliper measurement L (mm), individual animal ([4]; Day 1, 1 mg/kg ip tid × 14): 6 mm (2×) and 7 mm (2×) | Tumor Volume TV (mm^3), group Mean ([4]; Day 4, 1 mg/kg ip tid × 14): 155.3 mm^3 | Tumor Volume TV (mm^3), individual animal ([4]; Day 4, 1 mg/kg ip tid × 14): 196 mm^3 and 126 mm^3 and 144 mm^3 | Tumor caliper measurement L (mm), individual animal ([4]; Day 4, 1 mg/kg ip tid × 14): 8 mm (2×) and 7 mm
